This passage reports Activity results from ChEMBL document CHEMBL2407042, “Investigation of the protein alkylation sites of the STAT3:STAT3 inhibitor Stattic by mass spectrometry” (Bioorg Med Chem Lett, 2013).

For experiment [1], the species on record is Homo sapiens. Nature of the experiment: Binding affinity to STAT3 beta (127 to 722) (unknown origin) expressed in Escherichia coli BL21 Rosetta at 50 uM treated for 1 hr prior to trypsin digestion measured after 24 hrs by LC-MS/MS analysis in presence of ammonium bicarbonate and guanidium HCl.
For experiment [2], the species on record is Homo sapiens. Nature of the experiment: Binding affinity to STAT3 beta (127 to 722) (unknown origin) expressed in Escherichia coli BL21 Rosetta at 50 uM treated for 1 hr prior to trypsin digestion measured after 24 hrs by LC-MS/MS analysis in presence of ammonium bicarbonate and acetonitrile.
The species named for experiment [3] is Homo sapiens. The experiment in a line: Binding affinity to STAT3 beta (127 to 722) (unknown origin) expressed in Escherichia coli BL21 Rosetta at 50 uM treated for 1 hr prior to trypsin digestion measured after 24 hrs by LC-MS/MS analysis in presence of ammonium bicarbonate and N-octyl-glucoside.
The species entered for experiment [4] is Homo sapiens. The experiment in a line: Binding affinity to STAT3 beta (127 to 722) (unknown origin) expressed in Escherichia coli BL21 Rosetta at 50 uM treated for 1 hr prior to trypsin digestion measured after 24 hrs by LC-MS/MS analysis in presence of ammonium bicarbonate.
The species entered for experiment [5] is Homo sapiens. The experiment in a line: Binding affinity to STAT3 beta (127 to 722) (unknown origin) expressed in Escherichia coli BL21 Rosetta at 50 uM after 1 hr by mass spectrophotometric analysis.

Activity calls are given as the source filed them. The rule behind the calls is not given here.

Turning to `O=[N+]([O-])c1ccc2c(c1)S(=O)(=O)C=C2`, the result in experiment [1] was inactive. For the same compound, the outcome in experiment [2], in experiment [3], in experiment [4] and in experiment [5] was Active.
